Assay results: publication PMC13130965, “An Integrated Approach Combining Regulatory Tests in tg(cyp19a1b:GFP) Zebrafish Embryos to Assess Toxicity, Developmental Effects, and Estrogenic Activity of Chemicals: A Case Study with Bisphenol A Substitutes” (Environmental Science & Technology, 2026)
Converted amounts (≈) assume the structure as drawn. Like-named read-outs stand apart in the source and are kept apart here.

Legend:
[1] = test system: tg(cyp19a1b:GFP) zebrafish embryos; assay: Refined Fish Embryo Acute Toxicity test (FET, OECD TG 236): mortality; type: in vivo, zebrafish (Danio rerio); settings: nominal, brackets 95% CI
Procedure: (§1) Exposures were carried out in presaturated 24-well plates containing one embryo per well in 2 mL of test solution. The exposure was performed under semistatic conditions, with daily renewal of the test solution. The concentration ranges tested, along with a control with the same percentage of solvent alone, are recapitulated in Table S1. All exposure concentrations are reported as nominal. During the time course of the refined FET tests, embryos were observed after 8 h (coagulation), 24 h (lack of somite formation and nondetachment of the tail), and 48, 72, and 96 h of exposure (nondetection of the heartbeat). […] Moreover, hatching rate and nonlethal developmental effects (i.e., yolk deformity, growth retardation, spontaneous movement, edema, blood tail circulation, heart rate, pigmentation, head and tail/spinal malformations, and hemorrhage) were monitored daily. Tail/spinal malformations included lordosis, kyphosis, scoliosis, and reduced tail length.
(§2) This analysis considered all nonlethal developmental end points monitored in the refined FET assay (see above), except effects on hatching, pigmentation, spontaneous movement, and blood circulation. A teratogenic index (TI) was then calculated as the ratio LC50/EC50.
(§3) Baseline toxicity and experimental FET LC50 values were used to calculate toxic ratios (TR = predicted baseline toxicity LC50/experimental FET LC50). Compounds with TR < 10 were considered as baseline toxicants.

[2] = test system: Zebrafish embryos; settings: cited from earlier work; for LOEC (body length, GnRH3 neurons, reproductive neuroendocrine-related genes and hormones) / NOEC (body length, GnRH3 neurons, reproductive neuroendocrine-related genes and hormones): 120h-exposure, ref Qiu et al. (2021); for LC10(96h): ref Blanc et al. (2019)
[3] = molecular target: zebrafish ERβ2 (zfERβ2) (Danio rerio, UniProt Q7ZU32); assay: ZELH-zfERβ2 luciferase reporter gene assay; type: cell-based; settings: read-out: maximal efficacy
Sequence of zebrafish ERβ2 (zfERβ2) (Q7ZU32 1-553): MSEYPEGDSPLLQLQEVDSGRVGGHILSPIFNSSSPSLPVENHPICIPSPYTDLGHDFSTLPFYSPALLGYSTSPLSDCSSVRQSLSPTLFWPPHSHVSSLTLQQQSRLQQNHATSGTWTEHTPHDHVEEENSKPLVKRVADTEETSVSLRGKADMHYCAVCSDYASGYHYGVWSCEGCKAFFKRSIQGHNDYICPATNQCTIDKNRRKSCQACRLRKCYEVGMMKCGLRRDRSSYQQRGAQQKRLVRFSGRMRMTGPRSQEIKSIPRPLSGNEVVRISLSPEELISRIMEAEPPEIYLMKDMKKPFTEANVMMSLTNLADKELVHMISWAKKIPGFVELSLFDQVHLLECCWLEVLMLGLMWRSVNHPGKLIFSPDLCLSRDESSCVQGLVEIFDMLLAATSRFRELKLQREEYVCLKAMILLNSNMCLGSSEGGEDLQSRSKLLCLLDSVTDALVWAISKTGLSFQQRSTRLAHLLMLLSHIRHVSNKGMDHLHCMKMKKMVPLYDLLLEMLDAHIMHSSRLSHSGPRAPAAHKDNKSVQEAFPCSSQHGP
Procedure: The ZELH-zfERs reporter cell line was previously established after a two-step stable transfection of the zebrafish hepatic cell line ZFL with the luciferase gene under the control of ERE (yielding the ZELH cell line that expresses no functional ER) and the zebrafish ER subtype β2 (yielding the ZELH-zfERβ2 cell line). Cells were cultured, exposed to chemicals for 72 h, and measured for luciferase activity exactly as previously described. , For each chemical, serial dilutions were prepared in DMSO and tested in three independent experiments. The final DMSO concentration in the culture medium was always 0.1% v/v. All tested concentrations refer to nominal concentrations.

[4] = test system: hERβ; parameters: method as in Grimaldi et al.; settings: HELN-hERβ; ref Grimaldi et al.; cited from earlier work
[5] = Refined Fish Embryo Acute Toxicity test (FET, OECD TG 236): mortality; type: in vivo, zebrafish (Danio rerio); settings: tg(cyp19a1b:GFP), zebrafish, in vivo, other: waterborne exposure of embryos in test solution, LC50 (96h) experimental (FET test), nominal, brackets 95% CI
Procedure: as §1, §2, §3

[6] = test system: cyp19a1b:GFP (brain aromatase) in tg(cyp19a1b:GFP) zebrafish embryos; assay: EASZY assay (OECD TG 250): GFP induction; type: in vivo, zebrafish (Danio rerio); settings: for EC50: read-out: EASZY relative EC50, nominal
Procedure: The tests were conducted according to OECD TG 250. Newly fertilized cyp19a1b-GFP eggs were transferred to glass crystallizing dishes and exposed for 96 h in a humidified climate chamber (27 ± 2 °C) under semistatic conditions with a total renewal of the test solutions each day. Each condition consisted of three crystallizing dishes, each containing 7 embryos and 15 mL of test medium. Embryos were exposed to a range of nonlethal concentrations of chemicals as determined previously based on the refined FET assays. The tested concentration ranges of bisphenols, along with a control with the same percentage of solvent alone, are summarized in Table S2. All exposure concentrations are reported as nominal. At the end of exposure, transgenic zebrafish embryos were collected for fluorescence imaging to quantify GFP intensity. At the end of the experiments, all living zebrafish embryos were euthanized as described above. […] ICI was added together with bisphenols from 0 to 4 dpf (days post fertilization). […] In all coexposure experiments, the final DMSO concentration was 0.02% (v/v).
For fluorescence imaging, GFP fold induction was expressed as mean ± SEM, and values were compared to the DMSO control using one-way ANOVA followed by Dunnett’s posthoc test. […]

[7] = test system: tg(cyp19a1b:GFP) zebrafish embryos; assay: Refined FET: developmental effects / malformations; type: in vivo, zebrafish (Danio rerio); settings: nominal; for EC50: Danio rerio, end of 96 h exposure, read-out: EC50 malformations (cumulative sublethal end points); for LOEC deformity of yolk: at least 10% of embryos affected
Procedure: as §1, §2

[8] = ref Adamovsky et al.; cited from earlier work
[9] = test system: hERβ; parameters: method as in Pelch et al.; settings: HepG2-hERβ, ref Pelch et al., cited from earlier work; for EC50: NA = not active
[10] = test system: Adult Zebrafish; settings: ref Ren et al. (2017); cited from earlier work
[11] = test system: cyp19a1b:GFP (brain aromatase) in tg(cyp19a1b:GFP) zebrafish embryos; assay: Refined FET: GFP fluorescence imaging at 96 h; type: in vivo, zebrafish (Danio rerio); settings: nominal
Procedure: as §1, with “All the tests were conducted according to OECD TG 236, except for the temperature (27 ± 2 °C), which was aligned with the OECD TG 250 (see below). Exposures” for “Exposures”, “length. […] To do so, each embryo was photographed and analyzed as described by Brion et al. At the end of the refined FET assay, all living zebrafish embryos were euthanized using a protocol combining anesthesia induced by 168 mg/L tricaine (Pharmaq, delivered from Vetofish, Chateauneuf-les-Martigues, France) and the addition of bleach solution (sodium hypochlorite 6.15%; 1 volume of bleach to 5 volumes of water) to induce death.” for “length.”
For fluorescence imaging, GFP fold induction was expressed as mean ± SEM, and values were compared to the DMSO control using one-way ANOVA followed by Dunnett’s posthoc test.

[12] = zebrafish embryos, ref Gao et al.
[13] = zebrafish embryos, ref Ren et al. (2017)
[14] = 150h exposure, ref Song et al. (2014)

| SMILES | Emax [3] | EC50 [4] | maximal efficacy [4] | LC50 at 96 h [5] | EC50 [7] | LOEC edema [7] | LOEC head malformations [7] | LOEC heart rate disruption [7] | LOEC hemorrhage [7] | LOEC no blood tail circulation [7] | LOEC tail/spinal malformations [7] | LOEC deformity of yolk [7] | Log Kow [8] | maximal efficacy [9] | further results |
| --- | --- | --- | --- | --- | --- | --- | --- | --- | --- | --- | --- | --- | --- | --- | --- |
| Nc1ccc(Cl)c(Cl)c1 [3,4-DCA, reference compound] | – | – | – | – | – | – | – | – | – | – | – | – | – | – | LC50 (96h) experimental (FET test) [1]: 2.46 µg/mL (≈ 15.2 µM); mean LC50 of FET positive control ([2]; ref OECD TG 236 validation report): 2.7 µg/mL |
| Oc1ccc(Oc2ccc(O)cc2)cc1 [4,4’-ODP, 4-(4-hydroxyphenoxy)phenol] | 61% | 3060 nM | 72% | 17.1 µg/mL (≈ 84.3 µM) | 0.35 µg/mL (≈ 1.73 µM) | 0.99 mg/L | 2.96 mg/L | 2.96 mg/L | 0.99 mg/L | 8.89 mg/L | 2.96 mg/L | 2.96 mg/L | – | – | EC50 ([6]; Danio rerio, 96 h, 96 h): 0.363 µg/mL (≈ 1.8 µM); LOEC growth retardation [7]: 8.89 mg/L; LOEC no/Less pigmentation [7]: 0.99 mg/L |
| CCC(C)(c1ccc(O)cc1)c1ccc(O)cc1 [BPB, 4-[2-(4-hydroxyphenyl)butan-2-yl] phenol] | 66% | 128 nM | 60% | 6.85 µg/mL (≈ 28.3 µM) | 5.4 µg/mL (≈ 22.3 µM) | 5 mg/L | 10 mg/L | 10 mg/L | 10 mg/L | – | – | 10 mg/L | 3.95 | 56% | minimal effective concentration ([6]; Danio rerio, 96 h, read-out: EASZY LOEC (GFP induction), nominal): 0.312 µg/mL; LOEC no spontaneous movement [7]: 10 mg/L; LOEC (body length, GnRH3 neurons, reproductive neuroendocrine-related genes and hormones) [2]: 100 µg/L; NOEC (body length, GnRH3 neurons, reproductive neuroendocrine-related genes and hormones) [2]: 1 µg/L; NOEC (developmental toxicity) ([2]; Wildtype (AB/TL), 1-6 dpf static + 6-9 dpf semistatic, ref Catron et al. (2018; 2019)): 5.1 µM; LC50 ([2]; read-out: LC50(96h), Wildtype AB, 96h-exposure, ref Arrokhman et al. (2023)): 28000 nM; LC50 (96h) literature ([2]; zebrafish embryos, ref Arrokhman et al.): 6.79 µg/mL (≈ 28 µM); LC50 (96h) literature [2, 12]: 3.52 µg/mL (≈ 14.5 µM); Body length LOEC [2, 13]: 2 mg/L; Body length NOEC [2, 13]: 1 mg/L; LC50(24h) [2, 13]: 7.18 µg/mL (≈ 29.6 µM); LC50(48h) [2, 13]: 6.54 µg/mL (≈ 27 µM); LC50(72h) [2, 13]: 4.53 µg/mL (≈ 18.7 µM); LC50 (96h) literature ([2]; zebrafish embryos, ref Ren et al.): 3.88 µg/mL (≈ 16 µM); LC50(24h) [10]: 5.07 µg/mL (≈ 20.9 µM); LC50(48h) [10]: 4.64 µg/mL (≈ 19.1 µM); LC50(72h) [10]: 4.15 µg/mL (≈ 17.1 µM); LC50(96h) [10]: 4.15 µg/mL (≈ 17.1 µM) |
| Cc1cc(C(C)(C)c2ccc(O)c(C)c2)ccc1O [BPC, 4-[2-(4-hydroxy-3-methylphenyl)propan-2-yl]-2-methylphenol] | 66% | – | – | 4.92 µg/mL (≈ 19.2 µM) | 2.77 µg/mL (≈ 10.8 µM) | – | – | 8.53 mg/L | 8.53 mg/L | 8.53 mg/L | 8.53 mg/L | – | 4.32 | – | LC50 (96h) literature [2, 12]: 2.22 µg/mL (≈ 8.66 µM) |
| O=S(=O)(c1ccc(O)cc1)c1ccc(O)cc1 [BPS, 4-(4-hydroxyphenyl)sulfonylphenol] | 85% | 1720 nM | 100% | – | – | – | – | – | – | – | – | 400 mg/L | – | 77% | EC50 ([11]; Danio rerio, Hill model, read-out: EC50 GFP induction in refined FET): 35.7 µg/mL (≈ 143 µM); EC10 GFP induction in refined FET [11]: 16.6 µg/mL (≈ 66.3 µM); EC20 GFP induction in refined FET [11]: 22.0 µg/mL (≈ 87.9 µM); EC50 [9]: 2100 nM; EC50 ([6]; Danio rerio, 96 h, 96 h): 62.7 µg/mL (≈ 251 µM); LC10(96h) ([2]; 4-days exposure): > 100 µg/mL; Hatching success EC50(72h) ([2]; 4-days exposure, ref Moreman et al. (2017)): 155 (15) mg/L; LOEC (body length, GnRH3 neurons, reproductive neuroendocrine-related genes and hormones) [2]: 100 µg/L; NOEC (body length, GnRH3 neurons, reproductive neuroendocrine-related genes and hormones) [2]: 1 µg/L; LC10(96h) [2]: > 400000 nM; Body length LOEC [2, 13]: 350 mg/L; Body length NOEC [2, 13]: 300 mg/L; Hatching rate EC50(120h) [2, 13]: 200 µg/mL; Heart rate EC50(78h) [2, 13]: 318 µg/mL |
| O=S(=O)(c1ccc(O)cc1)c1ccc(OCc2ccccc2)cc1 [BPS-MPE, 4-(4-phenylmethoxyphenyl) sulfonylphenol] | – | – | – | 3.17 µg/mL (≈ 9.31 µM) | 3.45 µg/mL (≈ 10.1 µM) | – | – | – | – | – | – | – | 4.18 | 4% | – |
| CC(C)(c1cc(Cl)c(O)c(Cl)c1)c1cc(Cl)c(O)c(Cl)c1 [TCBPA, Tetrachloro-bisphenol A] | 42% | 68000 nM | 21% | 0.88 µg/mL (≈ 2.4 µM) | 0.48 µg/mL (≈ 1.31 µM) | 0.5 mg/L | 1 mg/L | 1 mg/L | – | 1 mg/L | 0.5 mg/L | 1 mg/L | 6.19 | 15% | estrogenic activity in EASZY assay ([6]; zebrafish, in vivo): absence of estrogenic activity; LOEC no spontaneous movement [7]: 2 mg/L; LOEC no/Less pigmentation [7]: 1 mg/L; concentrations causing lethal effects ([2]; 3-6 dpf exposure, ref Riu et al. (2014)): above 1 µM; LC50(144h) [2, 14]: 0.75 µg/mL (≈ 2.05 µM); LOAELs [2, 14]: 1 mg/L; LC50 (96h) literature ([2]; zebrafish embryos, ref Song et al.): ≈ 1 mg/L |
